In patent US20080167282A1, “Use of Inhibitors of Steroid Activity for the Treatment of Substance Related Disorders” (priority 2005, published 2008):

Assay: Study on the cocaine addiction: case report of a patient treated for hirsutism
Format: in vivo, human
Conditions: cocaine user; 50 mg 1 cp daily; after 6 months of therapy (treatment lasted approximately 9 months)
Experimental: In the course of the follow up transaminases and hormones were assayed.

With `CC(=O)O[C@]1(C(C)=O)CC[C@H]2[C@@H]3C=C(Cl)C4=CC(=O)[C@@H]5C[C@@H]5[C@]4(C)[C@H]3CC[C@@]21C` [cyproterone acetate] the “cocaine use status during follow up” value was “drug free”.
